Test results from patent US20260224732A1, “BIOPOLYMER PROTECTED OLIGONUCLEOTIDES FOR DRUG DELIVERY” (THE ROYAL INSTITUTION FOR THE ADVANCEMENT OF LEARNING / …, priority 2023, published 2026).
Read-outs that look alike come from different tables or passages of the source.

Tests used:
[1] = format: in vitro ADME, bovine; conditions: pH 6
Method: (§1) The sample then was stored at −20° C.
(§2) Results. The PAGE analyses were performed for both CA concentrations, and imaged side-by-side (FIG. 2). The strongest resulting band intensities were normalised to the t=0 data-point, plotted as a function of time (See Supplemental), and then fitted to the first-order kinetics equations (Equations 1, 2, and FIG. 3). The rate constants were calculated from these graphs (using Equation 4), and tabulated according to strand and CA concentration (Table 2).
(§3) Equation 4. The Equation 2, written as relationship between the band intensities (I at some t, and at t=0), and the rate constant, k.

[2] = Serum stability assay in L15 media with FBS, denaturing PAGE band intensity; format: in vitro ADME, bovine; conditions: pH 6
Method: as §1, §2
Equation 1. First-order rate law for the variation of the concentration of a substance (in this case, nucleic acid, “NA”) with time, where [NA]t is the concentration of NA at a given time t, and [NA]0 is the initial concentration.
as §3

[3] = Rheological measurements of dA/CA hydrogels; format: physicochemical; conditions: for storage modulus (G′): same wt % (dA15 1400 μM, dA30 700 μM, dA50 420 μM), Mag buffer, 25° C.; for G′ window: dA50 420 μM, dA30C8 2 mM, CA 60 mM, CAC2NH2 90 mM
Method: Hydrogel Assembly and Rheology: Unless otherwise stated, the preparation of gels follows this procedure. The appropriate amounts of strands are evaporated from their stocks on a speedvaccuum in a 300 μL Eppendorf. For the dA30-dsDNAn hydrogels, the concentration is half strand1 and half strand2. Once dry, 50 μL or 100 μL of a buffer containing the desired concentration of CA and/or CAC2NH2 is added to the Eppendorf. […] Both buffers give similar gels rheologically (FIG. 40). For concentrations of CA exceeding 20 mM or CAC2NH2 30 mM, the excess CA-R is dried with the strands from a water/CA 20 mM solution adjusted to pH 6. The dried DNA is mixed and sonicated to help it dissolve, forming instantly a cloudy filamentous gel. To homogenize the gels, the Eppendorf is heated to 85° C. for 5 minutes a Bio-Rad T100TM thermocycler, then cooled down to 20° C. and kept at that temperature overnight, unless otherwise noted. They are measured the next day. It is important to properly homogenize the gels, mixing them at high temp if needed, and to quickly cool them, or they may form more localized aggregates with varying rheology. Due to the high melting temperature of dA30C8 2 mM, CA 60 mM, CAC2NH2 90 mM, the gel was prepared by heating at 100° C. for 20 min (sealed to prevent water escaping), before being brought to 20° C. Clear monophasic gels are formed from this process.
Rheological measurements: Rheological properties were measured using stress-controlled rheometer (MCR 302, Anton Paar) using a 15 mm diameter cone plate at 0.2 mm (50 μL gels) or 0.5 mm (100 μL gels) gap distance. Samples were taken directly from the Eppendorf in which they were formed by prying it open with a razor blade and placed under the cone plate. The temperature was maintained at 25° C. for all measurements using a Peltier temperature control unit unless otherwise noted. Due to the small thickness of the samples, no temperature gradients are expected. To avoid drying, a solvent trap was used in all the measurements. Amplitude sweeps were first conducted to assess the linear viscoelastic range of the samples by slowly increasing the strain from 0.01% to 100%. […] Oscillatory frequency sweep tests were measured between 0.1 Hz and 100 Hz at 0.1% strain. Strain-cycle experiment was done by cycling the gel between 0.1% and 100% strains at 1 Hz. To understand the shear-thinning behavior of the samples, the viscosity was measured at increasing strain rate ranging from (0.1-100 Hz).
• A) Strand complement. Two 50 μL dA30C4 700 μM hydrogel in Mag buffer with CA 20 mM samples were prepared, as well as a 10 μL sample of dG4T30 3 mM (1.5 eq.) in the same buffer and CA concentration. A sample of dA30C4 hydrogel was measured independently. The dG4T30 sample was added to the second dA30C4 sample and vortexed in its Eppendorf for 2 minutes before being measured. • B) Melamine. A 50 μL hydrogel composed of dA30-dsDNA13 700 μM and CA 20 mM in Mag buffer was measured in the rheometer. The plate of the rheometer was lifted and 50 μL of solution of 20 mM melamine in Mag buffer at pH6 was added to it. Instant white precipitate formed and was encouraged by gently mixing with a spatula for 30s before the resulting liquid with solid precipitate was measured rheologically. • C) pH. A volume of 180 μL of dA30C4v2 700 μM CA 20 mM hydrogel in Mag buffer was prepared. The initial pH was measured at 5.71 with a surface pH meter (Mettler Toledo). An approximate volume of 50 μL was separated and measured rheologically. To the remaining 130 μL, 2.70 μL of NaOH 5.04M was added and stirred through vortexing. The resulting pH of the liquid was measured at 7.91. 50 μL of it were measured rheologically. To the remaining 80 μL, 1.5 μL of HCl 5.04M was added by aliquot and mixed through vortexing, forming a gel with a pH of 5.66 after 2 minutes. To note that in general, it is important to mix vigorously with the addition of the acid, or localized gels will form rather than a homogeneous one. […]

Control random: DNA GATGAGGTACCCAGAAGCCGAACTGGGCCAGACAACCCGGCGCTAAC, SEQ ID NO 11, no polyA (DNA, backbone not given here) [reference compound]
k 0 mM [CA] [1]: (3.86 ± 0.2) × 10^−2 h^−1
k 20 mM [CA] [1]: (3.48 ± 0.8) × 10^−2 h^−1

R7rA15: RNA strand AAAAAAAAAAAAAAAGTCATCG, SEQ ID NO 3 in Table 1; Table 5 swaps the name with rA15R7 (AAAAAAAAAAAAAAAGUCAUCG; chemistry not fully specified) [Strand R7rA15]
k 0 mM [CA] [1]: (2.80 ± 0.7) × 10^−2 h^−1
k 20 mM [CA] [1]: (7.47 ± 0.4) × 10^−3 h^−1
k 0 mM [CA] [2]: (3.73) × 10^−2 h^−1
k 20 mM [CA] [2]: (2.59) × 10^−3 h^−1

dA15: DNA strand of 15 adenines, SEQ ID NO 5 (DNA AAAAAAAAAAAAAAA; DNA, backbone not given here)
storage modulus (G′) ([3]; 1 Hz, CA 20 mM): 1.3±0.8×10^1 Pa
storage modulus ([3]; pure dA15 hydrogel with CA): ~10^1 Pa
storage modulus ([3]; pure dA15 hydrogel with CAC2NH2 instead of CA, 0.7 wt % (including CAC2NH2)): ~10^3 Pa

dA30C4-v2′: DNA strand, 30 adenines then CCCCGTCGCTCTCTCAAGTAGAAT, SEQ ID NO 10 (DNA AAAAAAAAAAAAAAAAAAAAAAAAAAAAAACCCCGTCGCTCTCTCAAGTAGAAT; DNA, backbone not given here)
k 0 mM [CA] [1]: (1.33 ± 0.1) × 10^−2 h^−1
k 20 mM [CA] [1]: (3.46 ± 0.5) × 10^−3 h^−1

dA30C4: DNA strand, 30 adenines then CCCC, SEQ ID NO 9 (DNA AAAAAAAAAAAAAAAAAAAAAAAAAAAAAACCCC; DNA, backbone not given here)
k 0 mM [CA] [2]: (5.83) × 10^−3 h^−1
k 20 mM [CA] [2]: (−2.08) × 10^−3 * h^−1
G′ and G″ after addition of the complementary strand dG4T30 ([3]; dA30C4 700 μM, CA 20 mM, dG4T30 1.5 eq.): large loss of G′ and G″

dA30C8: DNA strand, 30 adenines then CCCCCCCC, SEQ ID NO 8 (DNA AAAAAAAAAAAAAAAAAAAAAAAAAAAAAACCCCCCCC; DNA, backbone not given here)
k 0 mM [CA] [1]: (2.29 ± 0.5) × 10^−2 h^−1
k 20 mM [CA] [1]: (4.87 ± 0.7) × 10^−3 h^−1
moduli at 37° C. ([3]; 1.7 wt % gel, room temperature to 37° C.): virtually unchanged
G′ ([3]; 1.7 wt %, mixture of CA and CAC2NH2): ~10^4 Pa
G′ ([3]; 4.7 wt % (CA-R included), 1 Hz): 8±1×10^4 Pa
G′ ([3]; 4.7 wt % (CA-R included), 10 Hz): 1±0.1×10^5 Pa
storage modulus at 85° C. ([3]; 4.7 wt % gel, 85° C.): above 10^4 Pa
G′ window ([3]; CA 20 mM): ~10^5 Pa
gel state at 100° C. ([3]; qualitatively observed): staying a gel

dA50: DNA strand of 50 adenines, SEQ ID NO 28 (DNA AAAAAAAAAAAAAAAAAAAAAAAAAAAAAAAAAAAAAAAAAAAAAAAAAA; DNA, backbone not given here)
storage modulus (G′) ([3]; 1 Hz, CA 20 mM): 4±2×10^1 Pa
G′ window ([3]; CA 20 mM): ~10^1 Pa

rA15: RNA strand AAAAAAAAAAAAAAA, SEQ ID NO 1 (RNA, backbone not given here)
k 0 mM [CA] [1]: (2.43 ± 0.3) × 10^−2 h^−1
k 20 mM [CA] [1]: (2.42 ± 0.2) × 10^−3 h^−1
k 0 mM [CA] [2]: (6.70) × 10^−2 h^−1
k 20 mM [CA] [2]: (1.07) × 10^−2 h^−1

B1: dA30-dsDNA13: half strand1 and half strand2, SEQ ID NO 31 and 32, double-stranded DNA crosslink (nucleic acid)
chain 1: AAAAAAAAAAAAAAAAAAAAAAAAAAAAAACTAGAAGTGTCCAGTTA
chain 2: AAAAAAAAAAAAAAAAAAAAAAAAAAAAAATTACTAACTGGACACTT
modifications: DNA, backbone not given here; crosslinked double-stranded DNA
yield point of the gel (G″ overtakes G′) ([3]; 700 μM): Around 1 % shear strain
G′ and G″ after adding stoichiometric amount of melamine ([3]; 700 μM, CA 20 mM, melamine 20 mM): greatly decreases G′ and G″
self-healing, return to initial modulus ([3]; cycling low shear (0.1%) and high shear (100%)): under 1 min

B2: dA30C4v2: hydrogel strands: 30 adenine followed by 20 complementary base pairs as overhang; strand1 and strand2, SEQ ID NO 33, 34 (nucleic acid)
chain 1: AAAAAAAAAAAAAAAAAAAAAAAAAAAAAACCCCATTCTACTTGAGAGAGCGAC
chain 2: AAAAAAAAAAAAAAAAAAAAAAAAAAAAAACCCCGTCGCTCTCTCAAGTAGAAT
modifications: DNA, backbone not given here; hydrogel-forming strands with complementary overhangs
storage modulus G′ (1 Hz) ([3]; 700 μM strands (1.4 wt % for dA30C4v2), CA 20 mM): 4±0.8×10^3 Pa
G′ ([3]; 4 wt % (CA included)): 3×10^4 Pa
